Laboratory results taken from the supplement of paper PMC10307832.

Assays:
Experiment in all cases: relative viability (nuclei count vs DMSO), 5 days (fraction); higher = more cells survive
Vorinostat = compound: O=C(CCCCCCC(=O)Nc1ccccc1)NO [Vorinostat]
How it was run: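 Lung cancer cell lines were seeded into 1536-well plates, kept overnight at 37 °C and pinned with five library-drug doses (not always all listed) spaced by √10. After 5 days, nuclei were Hoechst-stained, imaged at 4× and counted with MetaXpress. Viability is treated-well nuclei over vehicle-well nuclei, taken as a median across plates. Plates needed control CV below 25% and at least one doubling.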

Vorinostat + Trametinib = compound: O=C(CCCCCCC(=O)Nc1ccccc1)NO [Vorinostat] + CC(=O)Nc1cccc(-n2c(=O)n(C3CC3)c(=O)c3c(Nc4ccc(I)cc4F)n(C)c(=O)c(C)c32)c1 [Trametinib] (partner 0.02 µM)
How it was run: (§1)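 Values are medians from duplicate plates. Each reflects relative viability, defined as the nuclei count of treated wells over that of vehicle wells. Lung cancer cell lines in 1536-well plates were pin-tool dosed one day after seeding with one drug alone or with a fixed anchor-drug dose plus five library-drug doses (not always all listed) in √10 steps, then fixed, stained and imaged at 4× after 5 days.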

Vorinostat + Palbociclib = compound: O=C(CCCCCCC(=O)Nc1ccccc1)NO [Vorinostat] + CC(=O)c1c(C)c2cnc(Nc3ccc(N4CCNCC4)cn3)nc2n(C2CCCC2)c1=O [Palbociclib] (partner 0.5 µM)
How it was run: as §1

Vorinostat + Bortezomib = compound: O=C(CCCCCCC(=O)Nc1ccccc1)NO [Vorinostat] + CC(C)C[C@H](NC(=O)[C@H](Cc1ccccc1)NC(=O)c1cnccn1)B(O)O [Bortezomib] (partner 0.002 µM)
How it was run: as §1

Vorinostat + Navitoclax = compound: O=C(CCCCCCC(=O)Nc1ccccc1)NO [Vorinostat] + CC1(C)CCC(c2ccc(Cl)cc2)=C(CN2CCN(c3ccc(C(=O)NS(=O)(=O)c4ccc(N[C@H](CCN5CCOCC5)CSc5ccccc5)c(S(=O)(=O)C(F)(F)F)c4)cc3)CC2)C1 [Navitoclax] (partner 0.5 µM)
How it was run: as §1

Vorinostat + Luminespib = compound: O=C(CCCCCCC(=O)Nc1ccccc1)NO [Vorinostat] + CCNC(=O)c1noc(-c2cc(C(C)C)c(O)cc2O)c1-c1ccc(CN2CCOCC2)cc1 [Luminespib] (partner 0.01 µM)
How it was run: as §1

Vorinostat + Foretinib = compound: O=C(CCCCCCC(=O)Nc1ccccc1)NO [Vorinostat] + COc1cc2c(Oc3ccc(NC(=O)C4(C(=O)Nc5ccc(F)cc5)CC4)cc3F)ccnc2cc1OCCCN1CCOCC1 [Foretinib] (partner 0.25 µM)
How it was run: as §1

Vorinostat + OSI-027 = compound: O=C(CCCCCCC(=O)Nc1ccccc1)NO [Vorinostat] + COc1cccc2cc(-c3nc([C@H]4CC[C@H](C(=O)O)CC4)n4ncnc(N)c34)[nH]c12 [OSI-027] (partner 0.5 µM)
How it was run: as §1

Vorinostat + Lapatinib = compound: O=C(CCCCCCC(=O)Nc1ccccc1)NO [Vorinostat] + CS(=O)(=O)CCNCc1ccc(-c2ccc3ncnc(Nc4ccc(OCc5cccc(F)c5)c(Cl)c4)c3c2)o1 [Lapatinib] (partner 2 µM)
How it was run: as §1

Vorinostat + Pictilisib = compound: O=C(CCCCCCC(=O)Nc1ccccc1)NO [Vorinostat] + CS(=O)(=O)N1CCN(Cc2cc3nc(-c4cccc5[nH]ncc45)nc(N4CCOCC4)c3s2)CC1 [Pictilisib] (partner 1 µM)
How it was run: as §1

Vorinostat + Crizotinib = compound: O=C(CCCCCCC(=O)Nc1ccccc1)NO [Vorinostat] + C[C@@H](Oc1cc(-c2cnn(C3CCNCC3)c2)cnc1N)c1c(Cl)ccc(F)c1Cl [Crizotinib] (partner 1 µM)
How it was run: as §1

Vorinostat + Tozasertib = compound: O=C(CCCCCCC(=O)Nc1ccccc1)NO [Vorinostat] + Cc1cc(Nc2cc(N3CCN(C)CC3)nc(Sc3ccc(NC(=O)C4CC4)cc3)n2)n[nH]1 [Tozasertib] (partner 0.1 µM)
How it was run: as §1

Vorinostat + Dasatinib = compound: O=C(CCCCCCC(=O)Nc1ccccc1)NO [Vorinostat] + Cc1nc(Nc2ncc(C(=O)Nc3c(C)cccc3Cl)s2)cc(N2CCN(CCO)CC2)n1 [Dasatinib] (partner 0.075 µM)
How it was run: as §1

Vorinostat + Phenformin = compound: O=C(CCCCCCC(=O)Nc1ccccc1)NO [Vorinostat] + N=C(N)NC(=N)NCCc1ccccc1 [Phenformin] (partner 250 µM)
How it was run: as §1

Vorinostat + Pemetrexed = compound: O=C(CCCCCCC(=O)Nc1ccccc1)NO [Vorinostat] + Nc1nc2[nH]cc(CCc3ccc(C(=O)N[C@@H](CCC(=O)O)C(=O)O)cc3)c2c(=O)[nH]1 [Pemetrexed] (partner 0.2 µM)
How it was run: as §1

Vorinostat + Decitabine = compound: O=C(CCCCCCC(=O)Nc1ccccc1)NO [Vorinostat] + Nc1ncn([C@H]2C[C@H](O)[C@@H](CO)O2)c(=O)n1 [Decitabine] (partner 2 µM)
How it was run: as §1

Vorinostat + Olaparib = compound: O=C(CCCCCCC(=O)Nc1ccccc1)NO [Vorinostat] + O=C(c1cc(Cc2n[nH]c(=O)c3ccccc23)ccc1F)N1CCN(C(=O)C2CC2)CC1 [Olaparib] (partner 8 µM)
How it was run: as §1

Question: NCI-H1650 was tested. Which relative viability (Vorinostat; 0.253 µM) did it give?
Answer: The relative viability was 1.03.

Question: What about the relative viability (Vorinostat; 0.8 µM) of the same cell line?
Answer: The relative viability was 0.758.

Question: What about the relative viability (Vorinostat; 1 µM, anchor plate) of the same cell line?
Answer: Its relative viability is 0.583.

Question: What about the relative viability (Vorinostat; 2.53 µM) of the same cell line?
Answer: The relative viability was 0.325.

Question: What about the relative viability (Vorinostat; 8 µM) of the same cell line?
Answer: Its relative viability is 0.163.

Question: And the relative viability (Vorinostat + Trametinib; first compound 0.253 µM)?
Answer: Its relative viability is 0.609.

Question: And the relative viability (Vorinostat + Trametinib; first compound 0.8 µM)?
Answer: The relative viability was 0.542.

Question: And the relative viability (Vorinostat + Trametinib; first compound 2.53 µM)?
Answer: Its relative viability is 0.175.

Question: What about the relative viability (Vorinostat + Trametinib; first compound 8 µM) of the same cell line?
Answer: The relative viability was 0.0883.

Question: What about the relative viability (Vorinostat + Palbociclib; first compound 0.253 µM) of the same cell line?
Answer: Its relative viability is 0.281.

Question: What about the relative viability (Vorinostat + Palbociclib; first compound 0.8 µM) of the same cell line?
Answer: The relative viability was 0.234.

Question: And the relative viability (Vorinostat + Palbociclib; first compound 2.53 µM)?
Answer: The relative viability was 0.164.

Question: And the relative viability (Vorinostat + Palbociclib; first compound 8 µM)?
Answer: Its relative viability is 0.0922.

Question: What about the relative viability (Vorinostat + Bortezomib; first compound 0.253 µM) of the same cell line?
Answer: Its relative viability is 0.22.

Question: What about the relative viability (Vorinostat + Bortezomib; first compound 0.8 µM) of the same cell line?
Answer: The relative viability was 0.178.

Question: And the relative viability (Vorinostat + Bortezomib; first compound 2.53 µM)?
Answer: The relative viability was 0.179.

Question: What about the relative viability (Vorinostat + Bortezomib; first compound 8 µM) of the same cell line?
Answer: The relative viability was 0.142.

Question: What about the relative viability (Vorinostat + Navitoclax; first compound 0.253 µM) of the same cell line?
Answer: Its relative viability is 1.12.

Question: And the relative viability (Vorinostat + Navitoclax; first compound 0.8 µM)?
Answer: The relative viability was 0.851.

Question: What about the relative viability (Vorinostat + Navitoclax; first compound 2.53 µM) of the same cell line?
Answer: The relative viability was 0.385.

Question: And the relative viability (Vorinostat + Navitoclax; first compound 8 µM)?
Answer: Its relative viability is 0.144.

Question: What about the relative viability (Vorinostat + Luminespib; first compound 0.253 µM) of the same cell line?
Answer: The relative viability was 0.2.

Question: And the relative viability (Vorinostat + Luminespib; first compound 0.8 µM)?
Answer: Its relative viability is 0.178.

Question: What about the relative viability (Vorinostat + Luminespib; first compound 2.53 µM) of the same cell line?
Answer: Its relative viability is 0.171.

Question: And the relative viability (Vorinostat + Luminespib; first compound 8 µM)?
Answer: The relative viability was 0.184.

Question: What about the relative viability (Vorinostat + Foretinib; first compound 0.253 µM) of the same cell line?
Answer: Its relative viability is 1.1.

Question: And the relative viability (Vorinostat + Foretinib; first compound 0.8 µM)?
Answer: Its relative viability is 1.

Question: And the relative viability (Vorinostat + Foretinib; first compound 2.53 µM)?
Answer: Its relative viability is 0.648.

Question: And the relative viability (Vorinostat + Foretinib; first compound 8 µM)?
Answer: Its relative viability is 0.14.

Question: And the relative viability (Vorinostat + OSI-027; first compound 0.253 µM)?
Answer: Its relative viability is 0.581.

Question: And the relative viability (Vorinostat + OSI-027; first compound 0.8 µM)?
Answer: Its relative viability is 0.36.

Question: And the relative viability (Vorinostat + OSI-027; first compound 2.53 µM)?
Answer: Its relative viability is 0.167.

Question: What about the relative viability (Vorinostat + OSI-027; first compound 8 µM) of the same cell line?
Answer: The relative viability was 0.145.

Question: And the relative viability (Vorinostat + Lapatinib; first compound 0.253 µM)?
Answer: Its relative viability is 0.803.

Question: What about the relative viability (Vorinostat + Lapatinib; first compound 0.8 µM) of the same cell line?
Answer: Its relative viability is 0.484.

Question: And the relative viability (Vorinostat + Lapatinib; first compound 2.53 µM)?
Answer: Its relative viability is 0.287.

Question: And the relative viability (Vorinostat + Lapatinib; first compound 8 µM)?
Answer: The relative viability was 0.118.

Question: And the relative viability (Vorinostat + Pictilisib; first compound 0.253 µM)?
Answer: The relative viability was 0.542.

Question: What about the relative viability (Vorinostat + Pictilisib; first compound 0.8 µM) of the same cell line?
Answer: Its relative viability is 0.283.

Question: And the relative viability (Vorinostat + Pictilisib; first compound 2.53 µM)?
Answer: Its relative viability is 0.181.

Question: And the relative viability (Vorinostat + Pictilisib; first compound 8 µM)?
Answer: The relative viability was 0.124.

Question: What about the relative viability (Vorinostat + Crizotinib; first compound 0.253 µM) of the same cell line?
Answer: The relative viability was 0.848.

Question: What about the relative viability (Vorinostat + Crizotinib; first compound 0.8 µM) of the same cell line?
Answer: The relative viability was 0.519.

Question: And the relative viability (Vorinostat + Crizotinib; first compound 2.53 µM)?
Answer: The relative viability was 0.29.

Question: And the relative viability (Vorinostat + Crizotinib; first compound 8 µM)?
Answer: The relative viability was 0.101.

Question: What about the relative viability (Vorinostat + Tozasertib; first compound 0.253 µM) of the same cell line?
Answer: Its relative viability is 0.478.

Question: And the relative viability (Vorinostat + Tozasertib; first compound 0.8 µM)?
Answer: Its relative viability is 0.293.

Question: And the relative viability (Vorinostat + Tozasertib; first compound 2.53 µM)?
Answer: The relative viability was 0.168.

Question: And the relative viability (Vorinostat + Tozasertib; first compound 8 µM)?
Answer: The relative viability was 0.152.

Question: What about the relative viability (Vorinostat + Dasatinib; first compound 0.253 µM) of the same cell line?
Answer: The relative viability was 0.397.

Question: And the relative viability (Vorinostat + Dasatinib; first compound 0.8 µM)?
Answer: Its relative viability is 0.292.

Question: And the relative viability (Vorinostat + Dasatinib; first compound 2.53 µM)?
Answer: Its relative viability is 0.201.

Question: And the relative viability (Vorinostat + Dasatinib; first compound 8 µM)?
Answer: Its relative viability is 0.141.

Question: And the relative viability (Vorinostat + Phenformin; first compound 0.253 µM)?
Answer: Its relative viability is 0.412.

Question: What about the relative viability (Vorinostat + Phenformin; first compound 0.8 µM) of the same cell line?
Answer: The relative viability was 0.393.

Question: And the relative viability (Vorinostat + Phenformin; first compound 2.53 µM)?
Answer: The relative viability was 0.164.

Question: And the relative viability (Vorinostat + Phenformin; first compound 8 µM)?
Answer: The relative viability was 0.14.

Question: And the relative viability (Vorinostat + Pemetrexed; first compound 0.253 µM)?
Answer: Its relative viability is 0.307.

Question: And the relative viability (Vorinostat + Pemetrexed; first compound 0.8 µM)?
Answer: The relative viability was 0.341.

Question: What about the relative viability (Vorinostat + Pemetrexed; first compound 2.53 µM) of the same cell line?
Answer: The relative viability was 0.29.

Question: And the relative viability (Vorinostat + Pemetrexed; first compound 8 µM)?
Answer: The relative viability was 0.18.

Question: What about the relative viability (Vorinostat + Decitabine; first compound 0.253 µM) of the same cell line?
Answer: Its relative viability is 0.351.

Question: And the relative viability (Vorinostat + Decitabine; first compound 0.8 µM)?
Answer: The relative viability was 0.359.

Question: And the relative viability (Vorinostat + Decitabine; first compound 2.53 µM)?
Answer: Its relative viability is 0.27.

Question: What about the relative viability (Vorinostat + Decitabine; first compound 8 µM) of the same cell line?
Answer: The relative viability was 0.135.

Question: And the relative viability (Vorinostat + Olaparib; first compound 0.253 µM)?
Answer: The relative viability was 0.737.

Question: And the relative viability (Vorinostat + Olaparib; first compound 0.8 µM)?
Answer: Its relative viability is 0.62.

Question: What about the relative viability (Vorinostat + Olaparib; first compound 2.53 µM) of the same cell line?
Answer: Its relative viability is 0.316.

Question: And the relative viability (Vorinostat + Olaparib; first compound 8 µM)?
Answer: Its relative viability is 0.16.
